Test [1] has as its target T1, human pancreatic chymotrypsin (Homo sapiens, UniProt P17538).
T1 construct: purchased Sigma, EMDbiosciences
Briefly: Specificity assay, chymotrypsin. It is filed as biochemical. To be noted: read-out: Chymotrypsin activity in the specificity assays (IC50). Here is the method: The specificities of compounds of the present disclosure were determined against a variety of serine proteases: human neutrophil elastase (HNE), porcine pancreatic elastase (PPE) and human pancreatic chymotrypsin and one cysteine protease: human liver cathepsin B. In all cases a 96-well plate format protocol using either colorimetric p-nitroaniline (pNA) substrate or fluorometric Amino-Methyl-Coumarin (AMC) specific for each enzyme was used as described previously (PCT Patent Application No. WO 00/09543) with some modifications to the serine protease assays. All enzymes were purchased from Sigma, EMDbiosciences while the substrates were from Bachem, Sigma and EMDbiosciences.
The pNA assay for Chymotrypsin included a 1 h enzyme-inhibitor pre-incubation at room temperature followed by addition of substrate and hydrolysis to ˜15% conversion as measured on a Spectramax Pro microplate reader. Compound concentrations varied from 100 to 0.4 μM depending on their potency. Cathepsin B, HNE, and PPE assays each was initiated by addition of substrate to enzyme-inhibitor pre-incubated for 10 min at room temperature and hydrolysis to 15% conversion as measured on cytofluor. […]
The percentage of inhibition was calculated using the formula: [1−((UVinh−UVblank)/(UVctl−UVblank))]×100 […]

Test [2] concerns HCV replicon with Renilla luciferase reporter in HUH-7 cells. The test can be described thus: HCV replicon luciferase reporter assay. Type of test: cell-based, Hepatitis C virus. From the text: An HCV replicon whole cell system was established as described by Lohmann V, Korner F, Koch J, Herian U, Theilmann L, Bartenschlager R., Science 285(5424): 110-3 (1999). This system enabled us to evaluate the effects of our HCV Protease compounds on HCV RNA replication. Briefly, using the HCV strain 1b sequence described in the Lohmann paper (Assession number: AJ238799), an HCV cDNA was synthesized by Operon Technologies, Inc. (Alameda, Calif.), and the full-length replicon was then assembled in plasmid pGem9zf(+) (Promega, Madison, Wis.) using standard molecular biology techniques. The replicon consists of (i) the HCV 5′ UTR fused to the first 12 amino acids of the capsid protein, (ii) the neomycin phosphotransferase gene (neo), (iii) the IRES from encephalomyocarditis virus (EMCV), and (iv) HCV NS3 to NS5B genes and the HCV 3′ UTR. […]
As a secondary assay, EC50 determinations from the replicon FRET assay were confirmed in a replicon luciferase reporter assay. […] Following 4 days in a 37° C./5% CO2 incubator, cells were analyzed for Renilla Luciferase activity using the Promega Dual-Glo Luciferase Assay System. […] Plates were read on a Packard TopCount NXT using a luminescence program.
The percentage inhibition was calculated using the formula below: […]
The values were graphed and analyzed using XLfit to obtain the EC50 value.

The values below come from patent publication US7772180B2, “Hepatitis C virus inhibitors” (Bristol-Myers Squibb Company, priority 2006, dated 2010).

Where only a bound is given, the exact number is not on record here.

T1 sequence (P17538 19-263): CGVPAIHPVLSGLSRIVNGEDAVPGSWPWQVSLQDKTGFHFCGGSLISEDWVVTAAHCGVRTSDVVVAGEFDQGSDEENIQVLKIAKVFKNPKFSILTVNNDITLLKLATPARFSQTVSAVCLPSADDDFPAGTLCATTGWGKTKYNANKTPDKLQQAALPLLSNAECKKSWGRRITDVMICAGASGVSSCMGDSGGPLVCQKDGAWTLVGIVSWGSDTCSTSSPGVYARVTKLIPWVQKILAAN

For `C=C[C@@H]1C[C@]1(NC(=O)[C@@H]1C[C@@H](Oc2nc(N(C)C)cc3cc(OC)ccc23)CN1C(=O)C(Nc1cc(C)cc(C)n1)C(C)(C)C)C(=O)NS(=O)(=O)C1CC1` (single isomer, unassigned) [Compound 18], in test [1], the concentration for half-maximal inhibition (IC50) is above 50000 nM. Also, in test [2], the concentration for a half-maximal effect (EC50) turned out to be 1.1 nM.
